Experimental findings from patent US9969796B2, “Peptides and binding partners therefor” (priority 2013, dated 2018) are described below.

The test system of the data set is Drosophila melanogaster. As to the kind of experiment: Drosophila melanogaster (fruit fly) injection model. Format: in vivo. The note with it: 250 μg/ml; for flies recovering after 24 hours: 24 hours post-injection; for signs of paralysis in injected flies: cohort of 20 age-matched flies. The protocol: FIG. 17 is a graph showing the results of an experiment to show Drosophila killing by Ece1-III. The percentage of Drosophila death, 24 hours post-infection of 250 μg/ml His-tagged full length Ece1p, Ece1-II (peptide 2) (FIG. 2), and Ece1-III (peptide 3), into a cohort of 20 age-matched flies.
The applicants also determined the effect of administering full length His-tagged Ece1p and Ece1-III in a Drosophila melanogaster (fruit fly) model.

For `CC[C@H](C)[C@H](NC(=O)CNC(=O)[C@H](CCSC)NC(=O)[C@@H](NC(=O)[C@@H](NC(=O)CNC(=O)[C@@H](NC(=O)[C@@H](NC(=O)[C@@H](N)CO)[C@@H](C)CC)[C@@H](C)CC)[C@@H](C)CC)[C@@H](C)CC)C(=O)N[C@@H](CC(C)C)C(=O)NCC(=O)N[C@@H](CC(N)=O)C(=O)N[C@H](C(=O)N1CCC[C@H]1C(=O)N[C@@H](CCC(N)=O)C(=O)N[C@H](C(=O)N[C@H](C(=O)N[C@@H](CCC(N)=O)C(=O)N[C@H](C(=O)N[C@H](C(=O)N[C@@H](CCSC)C(=O)N[C@@H](CO)C(=O)N[C@H](C(=O)N[C@H](C(=O)N[C@@H](CCCCN)C(=O)N[C@@H](C)C(=O)N[C@@H](Cc1ccccc1)C(=O)N[C@@H](CCCCN)C(=O)NCC(=O)N[C@@H](CC(N)=O)C(=O)N[C@@H](CCCCN)C(=O)N[C@@H](CCCNC(=N)N)C(=O)O)C(C)C)[C@@H](C)CC)[C@@H](C)CC)[C@@H](C)CC)[C@@H](C)CC)C(C)C)[C@@H](C)CC` [Ece1-III], the “flies recovering after 24 hours” value came out at 10% and the “signs of paralysis in injected flies” value is listed as “displayed signs of paralysis”.
For the molecule `CC[C@H](C)[C@H](NC(=O)[C@H](C)NC(=O)[C@@H](NC(=O)[C@H](CC(N)=O)NC(=O)[C@H](Cc1ccccc1)NC(=O)[C@H](CCC(=O)O)NC(=O)[C@H](CCC(N)=O)NC(=O)[C@@H]1CCCN1C(=O)[C@H](C)NC(=O)[C@@H]1CCCN1C(=O)[C@@H](NC(=O)[C@@H](NC(=O)[C@@H]1CCCN1C(=O)[C@H](C)NC(=O)[C@H](CCC(N)=O)NC(=O)[C@H](CC(=O)O)NC(=O)[C@H](C)NC(=O)[C@@H]1CCCN1C(=O)[C@H](C)NC(=O)[C@H](C)NC(=O)[C@@H]1CCCN1C(=O)[C@H](C)NC(=O)[C@H](C)NC(=O)[C@@H]1CCCN1C(=O)[C@H](C)NC(=O)[C@@H](NC(=O)[C@@H](N)CC(=O)O)C(C)C)[C@@H](C)O)C(C)C)[C@@H](C)O)C(=O)N[C@H](C(=O)N[C@@H](CCCCN)C(=O)N[C@@H](CCCNC(=N)N)C(=O)O)[C@@H](C)O` [Ece1-II], the “signs of paralysis in injected flies” value is on record as “no signs of paralysis”.
With “full length His-tagged Ece1p: His-tagged full length Ece1 protein of C. albicans”, the “flies recovering after 24 hours” value is given as 17.5% and the “signs of paralysis in injected flies” value is “displayed signs of paralysis”.
